Test results taken from BindingDB's records for patent US11691989 (Ascentage Pharma (Suzhou), 2023).

Target: T1, Induced myeloid leukemia cell differentiation protein Mcl-1 [171-323] (Homo sapiens, UniProt Q07820)
T1 construct: 171-323
Assay: Inhibition of Mcl-1 by fluorescence polarization (FP) assay
Experimental: The relative binding potency of representative Compounds of the Disclosure was determined by a fluorescence polarization (FP) assay. The method used a fluorescein labelled peptide (FAM-Bid) which binds to the Mcl-1 protein leading to an increased anisotropy measured in milli-polarization (mP) values using a plate reader. […] A 10-points serial dilution of each compound was prepared in DMSO and 5 μL solution was transferred into flat bottomed, 96-well back plate (final DMSO concentration […]). 120 μL of Buffer (PBS, 0.01% BGG (Sigma Cat. #SRE0011), 0.01% Triton X-100), containing the Fluorescein labelled peptide (Final concentration 2 nM) and Mcl-1 protein (final concentration 20 nM) was then added. […] 10-points dose response curves were plotted with GraphPad software using Sigmoidal Dose-Response Model and the IC50 values were determined by nonlinear regression fitting of the competition curves.

T1 sequence (Q07820 171-323): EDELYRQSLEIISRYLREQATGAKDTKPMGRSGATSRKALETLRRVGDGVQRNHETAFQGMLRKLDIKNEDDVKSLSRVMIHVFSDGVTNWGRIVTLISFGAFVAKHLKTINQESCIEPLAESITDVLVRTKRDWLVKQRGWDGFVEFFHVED

Row | IC50 | Compound
1 | 0.019 µM | Cc1c2c(nn1C)CSCc1cc(n(C)n1)CSc1cc(c3ccc(F)cc3c1)OCCCn1c(C(=O)O)cc3c-2c(Cl)ccc31 [US11691989, Compound 13]
2 | 0.015 µM | Cc1c(C(=O)O)n2c3ccc(Cl)c(c13)-c1c(nn(C)c1C)CSCc1cc(n(C(C)C)n1)CSc1cc(c3ccc(F)cc3c1)OCCC2 [US11691989, Compound 17]
